# Measurements reported in article PMC11859031, “Assessment of the In Vitro Biological Activities of Schiff Base-Synthesized Copper Oxide Nanoparticles as an Anti-Diabetic, Anti-Alzheimer, and Anti-Cancer Agent” (Pharmaceutics, 2025).
# Legend:
# [1] = Total antioxidant capacity (TAC), phosphomolybdenum method; conditions: samples at 100 µg/mL; mean ± SE, n = 3
# Procedure: 1. Preparation of SB-CuO-NPs
# The copper oxide nanoparticles (CuO-NPs) were biosynthesized using a concentrated anhydrous copper sulfate solution (1 mM) as a metal precursor based […]
# dissolved in 100 ml of deionized water to form a 0.1 M concentration. The Schiff base (SB) was mixed with the metal solution in a ratio of 4:1. The SB-CuO-NPs was monitored by a color change. They were dried at 80 °C after centrifuging the colloidal solution at 4000 rpm for 15 min.
# 2. Characterization of the SB-CuO-NPs
# The spectra of the SB-CuO-NPs were characterized using a Shimadzu UV-VIS recording spectrophotometer UV-240 after diluting the samples (10-fold) with deionized water at λ 200 - 800 nm. Their surface zeta potentials were measured using the laser zeta meter (Malvern Zetasizer 2000, Malvern, Worcestershire, UK) following […]
# Moreover, their average hydrodynamic sizes were determined using the laser diffraction method with multiple scattering techniques employing dynamic light scattering (DLS) (Malvern Zetasizer Nano ZS, Malvern Instruments Ltd., Malvern, United Kingdom) (Murdock et al., 2008). […]
# All biological activities were assessed in the prepared samples at equal concentrations (100 µg/mL). […]
# After cooling to room temperature, the absorbance was measured at 695 nm against the blank. […] The antioxidant capacity was expressed as mg gallic acid equivalent per gram weight. […]
# [2] = Iron reducing power (IRP); conditions: samples at 100 µg/mL; mean ± SE, n = 3
# Procedure: ammonium molybdate. Methanol (80%) was used in place of the sample for the blank. The tubes were sealed and incubated in a boiling water bath for 90 minutes.
# After cooling to room temperature, the absorbance was measured at 695 nm against the blank. […] was used at the same concentrations as a standard. The antioxidant capacity was expressed as mg gallic acid equivalent per gram weight.
# The iron reducing power was determined as µg/mL using the method proposed by Oyaizu (1986). In brief, 1ml of the tested sample (at each concentration) was combined with 1mL of 200mM sodium phosphate buffer (pH 6.6) and 1mL of 1% potassium ferricyanide. […] The absorbance was measured at 700nm against a blank prepared without the sample. […] A high absorbance at 700nm indicates a higher reducing power in the reaction mixture.
# (§1) The 1,1-Diphenyl-2-picryl-hydrazyl (DPPH) radical scavenging activities were evaluated using the method described by Rahman et al. An antioxidant substance capable of donating a hydrogen atom to a solution containing DPPH- can reduce the stable free radical, causing the solution to change color from violet to pale yellow.
# The remaining DPPH- radical was quantified by measuring the intensity of a light-purple colored DPPH methanol solution in the visible range at 518 nm using a spectroscopic method. […]
# DPPH radical scavenging = conditions: mean ± SE, n = 3
# Procedure: as §1
# The remaining DPPH- radical was quantified by measuring the intensity of a light-purple colored DPPH methanol solution in the visible range at 518 nm using a spectroscopic method. Two mill iliters of a DPPH solution (100 µ M) in ethanol were mixed with 2 mL of the sample (at each concentration). The reaction mixture for each concentration was thoroughly vortexed and then incubated in the dark at room temperature for 30 minutes. The absorbance was then measured spectrophotometrically at 518 nm against a blank (ethanol). For the control, 2 mL of ethanol was added instead of the sample and run simultaneously with the test.
# Ascorbic acid was used at the same concentrations as a positive control. P ercent […]
# inhibition of the DPPH free radical was calculated. […]
# ABTS radical scavenging = conditions: mean ± SE, n = 3
# Procedure: The procedure for the 2,2'-azinobis-(3-ethylbenzothiazoline-6-sulfonic acid) (ABTS) […]
# solution (7 mM) and potassium persulfate solution (2.4 mM). The working solution was prepared by mixing the two stock solutions in equal quantities and allowing them to react at room temperature in a dark place for 14 hours. The solution was then diluted by mixing 1 mL of ABTS solution with 60 mL of methanol to obtain an absorbance of 0.706 ± 0.01 units at 734 nm using a spectrophotometer. Fresh ABTS solution was prepared for each assay. The tested samples (at each concentration) were allowed to react with 1 mL of the ABTS solution, and the absorbance was taken at 734 nm after 7 minutes using a spectrophotometer. […]
# NO radical scavenging = conditions: mean ± SE, n = 3
# Procedure: The in vitro biological applications of the SB and SB-CuO-NPs, including antioxidant, scavenging, anti-diabetic, anti-Alzheimer, anti-arthritic, anti-inflammatory, cytotoxic effects, and enzyme inhibition, were assessed using methods described in the literature (See Supplementary Materials).
# During the current study, the free radical scavenging capacity of SB-CuO-NPs, SB, and ascorbic acid (positive control) was evaluated using the DPPH, ABTS, and NO radical methods. The scavenging activity is used to predict antioxidant efficacy, a mechanism in which antioxidants inhibit lipid oxidation. The lower IC50 value indicates a stronger ability of the SB-CuO-NPs to act as radical scavengers, whereas the higher IC50 value indicates a lower scavenging activity. […] The lower the IC50 value, the greater the antioxidant activity.
# [3] = test system: caspase-3 in HepG-2 cells; assay: Caspase-3 ELISA in treated HepG-2 cells; format: cell-based, human; conditions: HepG-2 cells treated at the IC50 value, mean ± SE, n = 3
# Procedure: (§2) Following the treatment of HepG-2, Caco-2, A549, and BJ-1 cells with the SB-CuO-NPs at their respective IC50 values, as illustrated in Figure 9 and detailed in Table 5, an assessment of the activities of the caspase-3 and Bcl-2 enzymes was conducted in the treated cells. […] This mechanism ultimately triggers apoptosis. Additionally, the increased activity of caspase-3 results in a decrease in the expression of cyclin D1 and CDK-2 mRNA, thereby promoting the arrest of the G1 phase of the cell cycle. Othman et al. further noted that the biosynthesized M-NPs facilitate apoptosis by inhibiting the expression of the PI3K/AKT and Ras/Raf/ERK protein signaling pathways.
# (§3) Invitrogen Corporation, following the manufacturer's instructions.
# Bcl-2 in HepG-2 cells = assay: Bcl-2 ELISA in treated HepG-2 cells; format: cell-based, human; conditions: HepG-2 cells treated at the IC50 value, mean ± SE, n = 3
# Procedure: as §2, §3
# [4] = test system: caspase-3 in Caco-2 cells; assay: Caspase-3 ELISA in treated Caco-2 cells; format: cell-based, human; conditions: Caco-2 cells treated at the IC50 value, mean ± SE, n = 3
# Procedure: as §2, §3
# Bcl-2 in Caco-2 cells = assay: Bcl-2 ELISA in treated Caco-2 cells; format: cell-based, human; conditions: Caco-2 cells treated at the IC50 value, mean ± SE, n = 3
# Procedure: as §2, §3
# caspase-3 in A549 cells = assay: Caspase-3 ELISA in treated A549 cells; format: cell-based, human; conditions: A549 cells treated at the IC50 value, mean ± SE, n = 3
# Procedure: as §2, §3
# Bcl-2 in A549 cells = assay: Bcl-2 ELISA in treated A549 cells; format: cell-based, human; conditions: A549 cells treated at the IC50 value, mean ± SE, n = 3
# Procedure: as §2, §3
# caspase-3 in BJ-1 cells = assay: Caspase-3 ELISA in treated BJ-1 cells; format: cell-based, human; conditions: BJ-1 cells treated at the IC50 value, mean ± SE, n = 3
# Procedure: as §2, §3
# Bcl-2 in BJ-1 cells = assay: Bcl-2 ELISA in treated BJ-1 cells; format: cell-based, human; conditions: BJ-1 cells treated at the IC50 value, mean ± SE, n = 3
# Procedure: as §2, §3
# [5] = test system: human lung cancer (A549) cell line; assay: MTT cytotoxicity, A549
# MTT cytotoxicity, BJ-1 = conditions: human, BJ-1 normal fibroblast cells
# [6] = test system: normal human fibroblast (BJ-1) cell line; assay: MTT cytotoxicity, BJ-1; conditions: Homo sapiens, Fibroblast, 48 h, read-out: Median Inhibitory Concentration (IC50) BJ-1
# [7] = test system: human hepatocellular carcinoma (HepG-2) cell line; assay: MTT cytotoxicity, HepG-2
# [8] = test system: human colon cancer (Caco-2) cell line; assay: MTT cytotoxicity, Caco-2
# [9] = target: T1, 5-LOX enzyme (human recombinant) (Homo sapiens, UniProt P09917); assay: 5-Lipoxygenase inhibition assay; format: biochemical; conditions: at 100 µg/mL; mean ± SE, n = 3; read-out: 5-LOX Inhib. (%)
# T1 construct: purchased Sigma-Aldrich 437996
# T1 sequence (P09917 1-674): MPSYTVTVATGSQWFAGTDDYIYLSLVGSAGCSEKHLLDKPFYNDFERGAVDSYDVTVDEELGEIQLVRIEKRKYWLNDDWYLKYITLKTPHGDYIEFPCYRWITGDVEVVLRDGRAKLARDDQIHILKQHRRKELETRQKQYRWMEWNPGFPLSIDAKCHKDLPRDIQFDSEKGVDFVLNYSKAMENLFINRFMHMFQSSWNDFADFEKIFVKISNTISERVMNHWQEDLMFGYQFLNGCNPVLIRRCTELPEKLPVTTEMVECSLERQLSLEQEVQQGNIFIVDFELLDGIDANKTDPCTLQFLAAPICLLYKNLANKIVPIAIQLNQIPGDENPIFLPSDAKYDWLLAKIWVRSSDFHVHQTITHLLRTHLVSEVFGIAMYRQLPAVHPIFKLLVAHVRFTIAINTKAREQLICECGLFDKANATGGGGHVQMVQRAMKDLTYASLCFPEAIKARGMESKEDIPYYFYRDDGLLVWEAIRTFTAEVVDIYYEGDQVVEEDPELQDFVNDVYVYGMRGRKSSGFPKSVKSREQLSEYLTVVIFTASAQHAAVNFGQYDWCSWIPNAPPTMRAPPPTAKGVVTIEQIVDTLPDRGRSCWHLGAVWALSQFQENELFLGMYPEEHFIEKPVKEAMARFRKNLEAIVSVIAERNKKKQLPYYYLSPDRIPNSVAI
smiles,measurement,setting,value
"O=C1O[C@H]([C@@H](O)CO)C(O)=C1O [Ascorbic Acid, reference compound]",Antioxidant activity TAC,[1],83.75 ± 0.13 mg gallic acid/g
same,Antioxidant activity IRP,[2],66.00 ± 0.13 µg/mL
same,Scavenging activity DPPH Inhib. (%),DPPH radical scavenging; at 100 µg/mL,61.68 ± 0.12%
same,Scavenging activity DPPH IC50,DPPH radical scavenging,4.50 ± 0.03 µg/mL
same,Scavenging activity ABTS Inhib. (%),ABTS radical scavenging; at 100 µg/mL,65.43 ± 0.12%
same,Scavenging activity ABTS IC50,ABTS radical scavenging,3.99 ± 0.04 µg/mL
same,Scavenging activity NO Inhib. (%),NO radical scavenging; at 100 µg/mL,53.93 ± 0.12%
same,Scavenging activity NO IC50,NO radical scavenging,5.24 ± 0.02 µg/mL
"COc1cccc2c1C(=O)c1c(O)c3c(c(O)c1C2=O)C[C@@](O)(C(=O)CO)C[C@@H]3O[C@H]1C[C@H](N)[C@H](O)[C@H](C)O1 [Doxorubicin, reference compound]",Caspase-3,[3],306.04 ± 1.23 pg/mL
same,Bcl-2,Bcl-2 in HepG-2 cells,4.00 ± 0.02 ng/mL
same,Caspase-3,[4],265.13 ± 0.12 pg/mL
same,Bcl-2,Bcl-2 in Caco-2 cells,2.04 ± 0.01 ng/mL
same,Caspase-3,caspase-3 in A549 cells,247.96 ± 0.08 pg/mL
same,Bcl-2,Bcl-2 in A549 cells,4.51 ± 0.01 ng/mL
same,Caspase-3,caspase-3 in BJ-1 cells,200.43 ± 0.08 pg/mL
same,Bcl-2,Bcl-2 in BJ-1 cells,2.72 ± 0.01 ng/mL
same,viability at 6.25 µg/mL,[5]; A549,77.4%
same,viability at 12.5 µg/mL,[5]; A549,51%
same,viability at 25 µg/mL,[5]; A549,24.3%
same,viability at 50 µg/mL,[5]; A549,12.1%
same,viability at 100 µg/mL,[5]; A549,5.17%
same,IC50,"[5]; A549, 48 h, read-out: Median Inhibitory Concentration (IC50) A549",14.4 ± 1.12 µg/mL
same,"viability at 48 h, 6.25 μg/mL","MTT cytotoxicity, BJ-1",87.4%
same,"viability at 48 h, 12.5 μg/mL","MTT cytotoxicity, BJ-1",68%
same,"viability at 48 h, 25 μg/mL","MTT cytotoxicity, BJ-1",42.3%
same,"viability at 48 h, 50 μg/mL","MTT cytotoxicity, BJ-1",20.1%
same,"viability at 48 h, 100 μg/mL","MTT cytotoxicity, BJ-1",13.2%
same,IC50,[6],22 ± 1.51 µg/mL
same,viability at 6.25 µg/mL,[7]; HepG2,74.4%
same,viability at 12.5 µg/mL,[7]; HepG2,59%
same,viability at 25 µg/mL,[7]; HepG2,34.3%
same,viability at 50 µg/mL,[7]; HepG2,18.1%
same,viability at 100 µg/mL,[7]; HepG2,9.17%
same,IC50,"[7]; HepG2, 48 h, read-out: Median Inhibitory Concentration (IC50) HepG-2",15.5 ± 1.98 µg/mL
same,viability at 6.25 µg/mL,[8]; Caco-2,70.2%
same,viability at 12.5 µg/mL,[8]; Caco-2,35.2%
same,viability at 25 µg/mL,[8]; Caco-2,5.64%
same,viability at 50 µg/mL,[8]; Caco-2,4.48%
same,viability at 100 µg/mL,[8]; Caco-2,1.3%
same,IC50,"[8]; Caco-2, 48 h, read-out: Median Inhibitory Concentration (IC50) Caco-2",11.1 ± 1.09 µg/mL
"CC(c1cc2ccccc2s1)N(O)C(N)=O (centres unmarked) [Zileuton, reference compound]",inhibition at 100 µg/mL,[9],46.99 ± 0.13%
